Data from patent publication US20260355184A1, “SMALL MOLECULE DEGRADERS OF HIV-1 TAT PROTEIN” (priority 2022, published 2026).
Where two headings read alike, the source gives them in different places.

Legend:
HIV NL4.3 strain = test: HIV infectivity assay, reporter cell line HeLa-CD4-LTR-LacZ, β-Gal activity (Tat protein inhibition); type: cell-based, HIV-1 (NL4.3); conditions: Human immunodeficiency virus 1, read-out: Infectivity IC50, HeLa-CD4-LTR-LacZ
Method: (§1) Next, the activity of these leads against HIV infection was evaluated using the reporter cell line HeLa-CD4-LTR-LacZ, which stably expresses the β-galactosidase (β-Gal) gene under the control of the HIV 5′ LTR. The HIV NL4.3 strain was used for these studies and β-Gal activity was measured 72 hrs post infection (FIG. 3A). Cytotoxicity assays using Cell-Titer-Glo were performed in parallel to assess cell viability (FIG. 3A). […] Their anti-HIV activity was further assessed in acute replication of Jurkat T cells with the NL4.3 strain (FIG. 3A). […] These OM10.1 cells contain a single integrated wild-type provirus, while ACH-2 cells contain a single integrated provirus with a TAR mutation C37T, defective Tat-TAR feedback loop (FIG. 3B).

[1] = Cytotoxicity assay, Cell-Titer-Glo, HeLa-CD4-LTR-LacZ; conditions: human, hela-cd4-ltr-lacz cells, Infectivity CC50, HeLa-CD4-LTR-LacZ
Method: as §1

COc1ccc(C(F)(F)F)cc1CNC(=O)Cn1cc(C(F)(F)F)cc(Cl)c1=O [compound 46875]
IC50 (HIV NL4.3 strain; analogs of TT-44863 (Table 2)): > 100 µM | CC50 ([1]; analogs of TT-44863 (Table 2)): > 100 µM

O=C(NCCCN1CCCC1=O)c1cn(-c2ccccc2)c2ccccc12 [compound 46878]
IC50 (HIV NL4.3 strain; analogs of TT-44881 (Table 1)): 50 to 100 µM | CC50 ([1]; analogs of TT-44881 (Table 1)): > 100 µM

O=C(NCCCN1CCCC1=O)c1cn(-c2ccccc2)c2ncc(F)cc12 [compound 46879]
IC50 (HIV NL4.3 strain; analogs of TT-44881 (Table 1)): 1 to 50 µM | CC50 ([1]; analogs of TT-44881 (Table 1)): > 100 µM

O=C(NCCCN1CCCC1=O)c1cn(-c2ccccc2)c2ccc(F)cc12 [compound 46880]
IC50 (HIV NL4.3 strain; analogs of TT-44881 (Table 1)): 50 to 100 µM | CC50 ([1]; analogs of TT-44881 (Table 1)): 50 to 100 µM

O=C(NCCCN1CCCC1=O)c1nn(Cc2ccccc2)c2c1CCC2 [compound 46885]
IC50 (HIV NL4.3 strain; analogs of TT-44881 (Table 1)): > 100 µM | CC50 ([1]; analogs of TT-44881 (Table 1)): > 100 µM

COc1ccc(C(F)(F)F)cc1NC(=O)Cn1cc(C(F)(F)F)ccc1=O [compound 46917]
IC50 (HIV NL4.3 strain; analogs of TT-44863 (Table 2)): 1 to 30 µM | CC50 ([1]; analogs of TT-44863 (Table 2)): > 100 µM

Cc1cc(NCCCN2CCCC2=O)n2nc(C)nc2n1 [compound 46930]
IC50 (HIV NL4.3 strain; analogs of TT-44881 (Table 1)): > 100 µM | CC50 ([1]; analogs of TT-44881 (Table 1)): > 100 µM

O=C(NCCCN1CCCC1=O)c1nc2ccccc2[nH]c1=O [compound 46931]
IC50 (HIV NL4.3 strain; analogs of TT-44881 (Table 1)): 10 to 30 µM | CC50 ([1]; analogs of TT-44881 (Table 1)): > 100 µM

CCn1nc(C(=O)NCCCN2CCCC2=O)c2c1CCC2 [compound 46932]
IC50 (HIV NL4.3 strain; analogs of TT-44881 (Table 1)): > 100 µM | CC50 ([1]; analogs of TT-44881 (Table 1)): > 100 µM

O=C(NCCCN1CCCC1=O)c1nn(CC2CCC2)c2c1CCC2 [compound 46933]
IC50 (HIV NL4.3 strain; analogs of TT-44881 (Table 1)): > 100 µM | CC50 ([1]; analogs of TT-44881 (Table 1)): > 100 µM

O=C(NCCCN1CCCC1=O)c1nnc(-c2ccccc2)c2ccccc12 [compound 46934]
IC50 (HIV NL4.3 strain; analogs of TT-44881 (Table 1)): > 100 µM | CC50 ([1]; analogs of TT-44881 (Table 1)): > 100 µM

O=C(NCCCN1CCCC1=O)c1cnn(-c2ccccc2)c1 [compound 46935]
IC50 (HIV NL4.3 strain; analogs of TT-44881 (Table 1)): > 100 µM | CC50 ([1]; analogs of TT-44881 (Table 1)): > 100 µM

COc1ccc(C#N)cc1NC(=O)Cn1cc(C)cc(Cl)c1=O [compound 46946]
IC50 (HIV NL4.3 strain; analogs of TT-44863 (Table 2)): > 50 µM | CC50 ([1]; analogs of TT-44863 (Table 2)): > 50 µM

COc1ccc(C(F)(F)F)cc1CNC(=O)Cn1cc(C)cc(Cl)c1=O [compound 46957]
IC50 (HIV NL4.3 strain; analogs of TT-44863 (Table 2)): > 50 µM | CC50 ([1]; analogs of TT-44863 (Table 2)): > 50 µM

COc1ccc(C(F)(F)F)cc1CNC(=O)Cn1cc(C(F)(F)F)ccc1=O [compound 46960]
IC50 (HIV NL4.3 strain; analogs of TT-44863 (Table 2)): > 100 µM | CC50 ([1]; analogs of TT-44863 (Table 2)): > 100 µM

O=C(NCCCN1CCCC1=O)c1nn(-c2ccccc2)cc1C(F)(F)F [compound 46979]
IC50 (HIV NL4.3 strain; analogs of TT-44881 (Table 1)): 50 to 100 µM | CC50 ([1]; analogs of TT-44881 (Table 1)): > 100 µM

Cc1ccc(C(F)(F)F)cc1NC(=O)Cn1cc(C(F)(F)F)cc(Cl)c1=O [compound 47001]
IC50 (HIV NL4.3 strain; analogs of TT-44863 (Table 2)): 1 to 10 µM | CC50 ([1]; analogs of TT-44863 (Table 2)): > 100 µM

COc1ccc(C(F)(F)F)cc1NC(=O)Cn1cc(F)cc(Cl)c1=O [compound 47006]
IC50 (HIV NL4.3 strain; analogs of TT-44863 (Table 2)): > 50 µM | CC50 ([1]; analogs of TT-44863 (Table 2)): > 50 µM

O=C(NCCCN1CCCC1=O)c1nn(-c2ccccc2)cc1F [compound 47010]
IC50 (HIV NL4.3 strain; analogs of TT-44881 (Table 1)): > 100 µM | CC50 ([1]; analogs of TT-44881 (Table 1)): > 100 µM

O=C(NCCCN1CCCC1=O)c1nn(-c2ccccc2)cc1C1CC1 [compound 47011]
IC50 (HIV NL4.3 strain; analogs of TT-44881 (Table 1)): > 100 µM | CC50 ([1]; analogs of TT-44881 (Table 1)): > 100 µM

COc1ccc(C(F)(F)F)cc1NC(=O)Cn1cc(C#N)cc(Cl)c1=O [compound 47018]
IC50 (HIV NL4.3 strain; analogs of TT-44863 (Table 2)): > 50 µM | CC50 ([1]; analogs of TT-44863 (Table 2)): > 50 µM

COc1ccc(C(F)(F)F)cc1NC(=O)CCn1cc(C(F)(F)F)cc(Cl)c1=O [compound 47020]
IC50 (HIV NL4.3 strain; analogs of TT-44863 (Table 2)): > 25 µM | CC50 ([1]; analogs of TT-44863 (Table 2)): > 25 µM

COc1ccc(C(F)(F)F)cc1NC(=O)Cn1cc(C(F)(F)F)cc(F)c1=O [compound 47033]
IC50 (HIV NL4.3 strain; analogs of TT-44863 (Table 2)): 1 to 10 µM | CC50 ([1]; analogs of TT-44863 (Table 2)): 50 to 100 µM

O=C(NCCCN1CCCC1=O)c1nc2ccccc2n1-c1ccccc1 [compound 47051]
IC50 (HIV NL4.3 strain; analogs of TT-44881 (Table 1)): > 25 µM | CC50 ([1]; analogs of TT-44881 (Table 1)): > 25 µM

COc1ccc(C(F)(F)F)cc1NC(=O)Cn1cc(C(F)(F)F)cc(Br)c1=O [compound 47055]
IC50 (HIV NL4.3 strain; analogs of TT-44863 (Table 2)): 1 to 10 µM | CC50 ([1]; analogs of TT-44863 (Table 2)): 50 to 100 µM

N#Cc1ccc(C(F)(F)F)cc1NC(=O)Cn1cc(C(F)(F)F)cc(Cl)c1=O [compound 47061]
IC50 (HIV NL4.3 strain; analogs of TT-44863 (Table 2)): > 100 µM | CC50 ([1]; analogs of TT-44863 (Table 2)): > 100 µM

CCOC(=O)c1sc(NC(=O)Cn2cc(C(F)(F)F)cc(Cl)c2=O)nc1C(F)(F)F [compound 47063]
IC50 (HIV NL4.3 strain; analogs of TT-44863 (Table 2)): 23.7 µM | CC50 ([1]; analogs of TT-44863 (Table 2)): 25 to 50 µM

CC(C)(C)c1cn(-c2ccccc2)nc1C(=O)NCCCN1CCCC1=O [compound 47091]
IC50 (HIV NL4.3 strain; analogs of TT-44881 (Table 1)): > 100 µM | CC50 ([1]; analogs of TT-44881 (Table 1)): 50 to 100 µM

CC(C)c1nn(-c2ccccc2)cc1C(=O)NCCCN1CCCC1=O [compound 47092]
IC50 (HIV NL4.3 strain; analogs of TT-44881 (Table 1)): > 100 µM | CC50 ([1]; analogs of TT-44881 (Table 1)): > 100 µM

COc1ccc(C(F)(F)F)cc1-c1noc(Cn2cc(C(F)(F)F)cc(Cl)c2=O)n1 [compound 47111]
IC50 (HIV NL4.3 strain; analogs of TT-44863 (Table 2)): > 100 µM | CC50 ([1]; analogs of TT-44863 (Table 2)): > 100 µM

O=C(NCCCN1CCCC1=O)c1ccc(=O)n(-c2ccccc2)c1 [compound 47155]
IC50 (HIV NL4.3 strain; analogs of TT-44881 (Table 1)): > 100 µM | CC50 ([1]; analogs of TT-44881 (Table 1)): > 100 µM

COc1cc(C(F)(F)F)ccc1NC(=O)Cn1cccc(Cl)c1=O [compound 47171]
IC50 (HIV NL4.3 strain; analogs of TT-44863 (Table 2)): > 100 µM | CC50 ([1]; analogs of TT-44863 (Table 2)): > 100 µM

COc1ccc(C(F)(F)F)cc1-c1noc(Cn2cc(C)cc(Cl)c2=O)n1 [compound 47198]
IC50 (HIV NL4.3 strain; analogs of TT-44863 (Table 2)): > 50 µM | CC50 ([1]; analogs of TT-44863 (Table 2)): > 50 µM

COc1ccc(C(F)(F)F)cc1-c1noc(Cn2cc(C(F)(F)F)ccc2=O)n1 [compound 47199]
IC50 (HIV NL4.3 strain; analogs of TT-44863 (Table 2)): > 50 µM | CC50 ([1]; analogs of TT-44863 (Table 2)): > 50 µM
